For one test, the target named is JAK2 (Homo sapiens (Human), UniProt O60674). As to the kind of experiment: JAK2 versus JAK1 (Assay A at 1 mM ATP). In kind it is biochemical. The conditions noted are these: ratio JAK2/JAK1, Assay A at 1 mM ATP.
The subject of a further test is PI3K. The experiment in a line: PI3K inhibition according to at least one assay described herein. In kind it is biochemical.

JAK2, sequence (O60674 whole entry, species assumed): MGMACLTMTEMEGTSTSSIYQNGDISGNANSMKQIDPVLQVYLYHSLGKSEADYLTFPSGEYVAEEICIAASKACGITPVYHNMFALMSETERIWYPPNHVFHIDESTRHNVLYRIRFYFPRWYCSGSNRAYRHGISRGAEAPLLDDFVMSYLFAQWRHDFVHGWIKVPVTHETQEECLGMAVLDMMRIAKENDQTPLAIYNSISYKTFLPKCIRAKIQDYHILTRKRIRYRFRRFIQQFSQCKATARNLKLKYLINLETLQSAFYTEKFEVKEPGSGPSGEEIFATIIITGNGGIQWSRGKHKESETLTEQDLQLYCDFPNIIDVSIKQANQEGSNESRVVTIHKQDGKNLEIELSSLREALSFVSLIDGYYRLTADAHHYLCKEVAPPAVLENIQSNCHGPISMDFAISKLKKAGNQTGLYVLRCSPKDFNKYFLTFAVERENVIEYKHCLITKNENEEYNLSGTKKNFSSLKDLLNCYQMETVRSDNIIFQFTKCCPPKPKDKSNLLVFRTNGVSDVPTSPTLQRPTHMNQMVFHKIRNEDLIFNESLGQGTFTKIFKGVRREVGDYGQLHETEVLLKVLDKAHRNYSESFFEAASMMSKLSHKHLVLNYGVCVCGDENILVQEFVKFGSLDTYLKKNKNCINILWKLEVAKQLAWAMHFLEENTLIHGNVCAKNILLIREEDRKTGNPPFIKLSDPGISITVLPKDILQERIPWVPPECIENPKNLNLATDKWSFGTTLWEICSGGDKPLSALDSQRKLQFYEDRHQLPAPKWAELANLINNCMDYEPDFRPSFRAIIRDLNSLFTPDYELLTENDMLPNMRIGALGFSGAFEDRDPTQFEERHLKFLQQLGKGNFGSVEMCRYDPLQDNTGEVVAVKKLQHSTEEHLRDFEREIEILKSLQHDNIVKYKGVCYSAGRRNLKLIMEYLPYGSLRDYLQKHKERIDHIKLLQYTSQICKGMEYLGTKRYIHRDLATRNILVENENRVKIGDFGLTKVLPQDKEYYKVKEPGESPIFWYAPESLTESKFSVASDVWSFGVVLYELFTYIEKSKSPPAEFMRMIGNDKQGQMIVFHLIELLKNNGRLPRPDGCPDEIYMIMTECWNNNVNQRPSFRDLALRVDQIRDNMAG

For the compound `N#CCC(CN1CCN(C(=O)c2ccc(C#N)cc2F)CC1)n1cc(-c2ncnc3[nH]ccc23)cn1` (stereo not shown) [Compound 5, 4-[(4-{3-cyano-2-[4-(7H-pyrrolo[2,3-d]pyrimidin-4-yl)-1H-pyrazol-1-yl]propyl}piperazin-1-yl)carbonyl]-3-fluorobenzonitrile], the JAK2/JAK1 on JAK2 was >10.
Still for that read-out and setting: in the case of `CCNCc1cc(O[C@H]2CC[C@@H](N3CC(CC#N)(n4cc(-c5ncnc6[nH]ccc56)cn4)C3)CC2)nc(C(F)(F)F)c1` [Compound 19, {1-(cis-4-{[4-[(ethylamino)methyl]-6-(trifluoromethyl)pyridin-2-yl]oxy}cyclohexyl)-3-[4-(7H-pyrrolo[2,3-d]pyrimidin-4-yl)-1H-pyrazol-1-yl]azetidin-3-yl}acetonitrile] it was >10; in that of `N#CC[C@]1(n2cc(-c3ncnc4[nH]ccc34)cn2)C[C@H](N2CCC(Oc3cc(CN4CC(O)C4)cc(C(F)(F)F)n3)CC2)C1` [Compound 11, {trans-3-(4-{[4-[(3-hydroxyazetidin-1-yl)methyl]-6-(trifluoromethyl)pyridin-2-yl]oxy}piperidin-1-yl)-1-[4-(7H-pyrrolo[2,3-d]pyrimidin-4-yl)-1H-pyrazol-1-yl]cyclobutyl}acetonitrile], >10; in that of `N#CCC1(n2cc(-c3ncnc4[nH]ccc34)cn2)CN(C2CCN(C(=O)Nc3ccc(F)cc3C(F)(F)F)CC2)C1` [Compound 8], >10.
As for `C[C@H](O)CNCc1cc(OC2CCN([C@H]3C[C@](CC#N)(n4cc(-c5ncnc6[nH]ccc56)cn4)C3)CC2)nc(C(F)(F)F)c1` [Compound 25, {trans-3-(4-{[4-({[(2S)-2-hydroxypropyl]amino}methyl)-6-(trifluoromethyl)pyridin-2-yl]oxy}piperidin-1-yl)-1-[4-(7H-pyrrolo[2,3-d]pyrimidin-4-yl)-1H-pyrazol-1-yl]cyclobutyl}acetonitrile], the JAK2/JAK1 at JAK2 is on record as >10.
In the case of `C[C@@H](CO)NCc1cc(OC2CCN([C@H]3C[C@](CC#N)(n4cc(-c5ncnc6[nH]ccc56)cn4)C3)CC2)nc(C(F)(F)F)c1` [Compound 23, {trans-3-(4-{[4-({[(1S)-2-hydroxy-1-methylethyl]amino}methyl)-6-(trifluoromethyl)pyridin-2-yl]oxy}piperidin-1-yl)-1-[4-(7H-pyrrolo[2,3-d]pyrimidin-4-yl)-1H-pyrazol-1-yl]cyclobutyl}acetonitrile], the JAK2/JAK1 at JAK2 is recorded as >10.
For the compound `N#CCC1(n2cc(-c3ncnc4[nH]ccc34)cn2)CN([C@H]2CC[C@@H](Oc3cc(CN4CC[C@@H](O)C4)cc(C(F)(F)F)n3)CC2)C1` [Compound 21, {1-(cis-4-{[4-{[(3R)-3-hydroxypyrrolidin-1-yl]methyl}-6-(trifluoromethyl)pyridin-2-yl]oxy}cyclohexyl)-3-[4-(7H-pyrrolo[2,3-d]pyrimidin-4-yl)-1H-pyrazol-1-yl]azetidin-3-yl}acetonitrile], at JAK2, the JAK2/JAK1 is reported as >10.
For the compound `CCOc1c([C@H](C)n2nc(C)c3c(N)ncnc32)cc(Cl)c(F)c1[C@@H]1CNC(=O)C1` [compound of Formula I, (R)-4-(3-((S)-1-(4-amino-3-methyl-1H-pyrazolo[3,4-d]pyrimidin-1-yl)ethyl)-5-chloro-2-ethoxy-6-fluorophenyl)pyrrolidin-2-one], the PI3K inhibition entry in the test with PI3K was “found to be PI3K inhibitors”.
For the compound `C[C@H](NC(=O)c1cc(F)c(N2CC(CC#N)(n3cc(-c4ncnc5[nH]ccc45)cn3)C2)cc1F)C(F)(F)F` [Compound 16, 4-{3-(cyanomethyl)-3-[4-(7H-pyrrolo[2,3-d]pyrimidin-4-yl)-1H-pyrazol-1-yl]azetidin-1-yl}-2,5-difluoro-N-[(1S)-2,2,2-trifluoro-1-methylethyl]benzamide], the JAK2/JAK1 at JAK2 is >10.
On the same count and under the same terms, next, `N#CCC(C1CCN(c2nc3cccnc3o2)C1)n1cc(-c2ncnc3[nH]ccc23)cn1` (stereo not shown) [Compound 4, 3-(1-[1,3]oxazolo[5,4-b]pyridin-2-ylpyrrolidin-3-yl)-3-[4-(7H-pyrrolo[2,3-d]pyrimidin-4-yl)-1H-pyrazol-1-yl]propanenitrile]: >10; `C[C@@H](O)CNCc1cc(OC2CCN([C@H]3C[C@](CC#N)(n4cc(-c5ncnc6[nH]ccc56)cn4)C3)CC2)nc(C(F)(F)F)c1` [Compound 24, {trans-3-(4-{[4-({[(2R)-2-hydroxypropyl]amino}methyl)-6-(trifluoromethyl)pyridin-2-yl]oxy}piperidin-1-yl)-1-[4-(7H-pyrrolo[2,3-d]pyrimidin-4-yl)-1H-pyrazol-1-yl]cyclobutyl}acetonitrile]: >10.
On the same count and under the same terms, next, `N#CCC1(n2cc(-c3ncnc4[nH]ccc34)cn2)CN([C@H]2CC[C@@H](Oc3cc(CCO)nc(C(F)(F)F)n3)CC2)C1` [Compound 18, {1-(cis-4-{[6-(2-hydroxyethyl)-2-(trifluoromethyl)pyrimidin-4-yl]oxy}cyclohexyl)-3-[4-(7H-pyrrolo[2,3-d]pyrimidin-4-yl)-1H-pyrazol-1-yl]azetidin-3-yl)acetonitrile]: >10; `N#CCC1(n2cc(-c3ncnc4[nH]ccc34)cn2)CN(C2CCN(C(=O)c3ccnc(C(F)(F)F)c3F)CC2)C1` [Compound 7, {1-{1-[3-Fluoro-2-(trifluoromethyl)isonicotinoyl]piperidin-4-yl}-3-[4-(7H-pyrrolo[2,3-d]pyrimidin-4-yl)-1H-pyrazol-1-yl]azetidin-3-yl}acetonitrile]: >10; `N#CC[C@]1(n2cc(-c3ncnc4[nH]ccc34)cn2)C[C@H](N2CCC(Oc3cc(CCO)cc(C(F)(F)F)n3)CC2)C1` [Compound 26, {trans-3-(4-{[4-(2-hydroxyethyl)-6-(trifluoromethyl)pyridin-2-yl]oxy}piperidin-1-yl)-1-[4-(7H-pyrrolo[2,3-d]pyrimidin-4-yl)-1H-pyrazol-1-yl]cyclobutyl}acetonitrile]: >10.
On the same count and under the same terms, next, `N#CCC1(n2cc(-c3ncnc4[nH]ccc34)cn2)CN(C2CCN(C(=O)c3ccnc(C(F)(F)F)n3)CC2)C1` [Compound 9, [3-[4-(7H-pyrrolo[2,3-d]pyrimidin-4-yl)-1H-pyrazol-1-yl]-1-(1-{[2-(trifluoromethyl)pyrimidin-4-yl]carbonyl}piperidin-4-yl)azetidin-3-yl]acetonitrile]: >10; `N#CCC(CN1CCN(C(=O)c2ccc(C#N)cc2F)CC1)n1ccc(-c2ncnc3[nH]ccc23)c1` (stereo not shown) [Compound 6, 4-[(4-{3-cyano-2-[3-(7H-pyrrolo[2,3-d]pyrimidin-4-yl)-1H-pyrrol-1-yl]propyl}piperazin-1-yl)carbonyl]-3-fluorobenzonitrile]: >10.
Take `N#CC[C@]1(n2cc(-c3ncnc4[nH]ccc34)cn2)C[C@H](N2CCC(Oc3cc(CN4CCC[C@@H]4CO)cc(C(F)(F)F)n3)CC2)C1` [Compound 13, {trans-3-(4-{[4-{[(2R)-2-(hydroxymethyl)pyrrolidin-1-yl]methyl}-6-(trifluoromethyl)pyridin-2-yl]oxy}piperidin-1-yl)-1-[4-(7H-pyrrolo[2,3-d]pyrimidin-4-yl)-1H-pyrazol-1-yl]cyclobutyl}acetonitrile]: the JAK2/JAK1 on JAK2 is given as >10.
On the same count and under the same terms, next, `N#CC[C@]1(n2cc(-c3ncnc4[nH]ccc34)cn2)C[C@H](N2CCC(Oc3cc(CN4CCC[C@H]4CO)cc(C(F)(F)F)n3)CC2)C1` [Compound 12, {trans-3-(4-{[4-{[(2S)-2-(hydroxymethyl)pyrrolidin-1-yl]methyl}-6-(trifluoromethyl)pyridin-2-yl]oxy}piperidin-1-yl)-1-[4-(7H-pyrrolo[2,3-d]pyrimidin-4-yl)-1H-pyrazol-1-yl]cyclobutyl}acetonitrile]: >10; `CC(C)(O)c1cc(O[C@H]2CC[C@@H](N3CC(CC#N)(n4cc(-c5ncnc6[nH]ccc56)cn4)C3)CC2)nc(C(F)(F)F)c1` [Compound 20, {1-(cis-4-{[4-(1-hydroxy-1-methylethyl)-6-(trifluoromethyl)pyridin-2-yl]oxy}cyclohexyl)-3-[4-(7H-pyrrolo[2,3-d]pyrimidin-4-yl)-1H-pyrazol-1-yl]azetidin-3-yl}acetonitrile]: >10; `N#CCC(C1CCN(c2cccc(Cl)n2)C1)n1cc(-c2ncnc3[nH]ccc23)cn1` (single isomer, unassigned) [Compound 3, 3-[1-(6-chloropyridin-2-yl)pyrrolidin-3-yl]-3-[4-(7H-pyrrolo[2,3-d]pyrimidin-4-yl)-1H-pyrazol-1-yl]propanenitrile]: >10.
Same read-out and setting: in the case of `N#CCC1(n2cc(-c3ncnc4[nH]ccc34)cn2)CN([C@H]2CC[C@@H](Oc3cc(CN4CC[C@H](O)C4)cc(C(F)(F)F)n3)CC2)C1` [Compound 22, {1-(cis-4-{[4-{[(3S)-3-hydroxypyrrolidin-1-yl]methyl}-6-(trifluoromethyl)pyridin-2-yl]oxy}cyclohexyl)-3-[4-(7H-pyrrolo[2,3-d]pyrimidin-4-yl)-1H-pyrazol-1-yl]azetidin-3-yl}acetonitrile] it was >10.
On the same count and under the same terms, next, `N#CC[C@]1(n2cc(-c3ncnc4[nH]ccc34)cn2)C[C@H](N2CCN(C(=O)c3ccnc(C(F)(F)F)n3)CC2)C1` [Compound 10, [trans-1-[4-(7H-pyrrolo[2,3-d]pyrimidin-4-yl)-1H-pyrazol-1-yl]-3-(4-{[2-(trifluoromethyl)pyrimidin-4-yl]carbonyl}piperazin-1-yl)cyclobutyl]acetonitrile]: >10.

The values are drawn from US11084822B2, “Salts and processes of preparing a PI3K inhibitor” (Incyte Corporation, priority 2015, dated 2021).
